Test results taken from patent publication US20240287007A1, “N-(1,3,4-OXADIAZOL-2-YL)PHENYLCARBOXAMIDES AS HERBICIDES” (BAYER AKTIENGESELLSCHAFT, priority 2021, published 2024).

Tests used:
Format in all cases: in vivo
[1] = test system: VERPE (Veronica persica); experiment: Post-emergence herbicidal action against VERPE; conditions: visual assessment after about 3 weeks
Experimental: (§1) Seeds of monocotyledonous and dicotyledonous weed and crop plants are laid out in sandy loam soil in wood-fiber pots, covered with soil and cultivated in a greenhouse under good growth conditions. 2 to 3 weeks after sowing, the trial plants are treated at the one-leaf stage. The compounds of the invention, formulated in the form of wettable powders (WP) or as emulsion concentrates (EC), are then sprayed onto the green parts of the plants as aqueous suspension or emulsion at a water application rate equating to 600 to 800 l/ha with addition of 0.2% wetting agent. After the test plants have been left to stand in the greenhouse under optimal growth conditions for about 3 weeks, the action of the preparations is assessed visually in comparison to untreated controls (herbicidal action in percent (%): 100% activity=the plants have died, 0% activity=like control plants).

[2] = test system: LOLRI (Lolium rigidum); experiment: Pre-emergence herbicidal effect against LOLRI; conditions: 80 g/ha, scored visually after 3 weeks
Excerpt: (§2) Seeds of monocotyledonous and dicotyledonous weed plants and crop plants are laid out in sandy loam soil in wood-fiber pots and covered with soil. The compounds of the invention, formulated in the form of wettable powders (WP) or as emulsion concentrates (EC), are then applied to the surface of the covering soil as aqueous suspension or emulsion at a water application rate equating to 600 to 800 l/ha with addition of 0.2% wetting agent. After the treatment, the pots are placed in a greenhouse and kept under good growth conditions for the trial plants. The damage to the test plants is scored visually after a test period of 3 weeks by comparison with untreated controls (herbicidal activity in percent (%): 100% activity=the plants have died, 0% activity=like control plants).

[3] = test system: DIGSA (Digitaria sanguinalis); experiment: Pre-emergence herbicidal effect against DIGSA; conditions: scored visually after 3 weeks
Excerpt: as §2

[4] = test system: KCHSC (Kochia scoparia); experiment: Post-emergence herbicidal action against KCHSC; conditions: visual assessment after about 3 weeks
Experimental: as §1

[5] = test system: PHBPU (Pharbitis purpurea); experiment: Post-emergence herbicidal action against PHBPU; conditions: visual assessment after about 3 weeks
Experimental: as §1

[6] = test system: AVEFA (Avena fatua); experiment: Post-emergence herbicidal action against AVEFA; conditions: 80 g/ha, visual assessment after about 3 weeks
Experimental: as §1

[7] = test system: ECHCG (Echinochloa crus-galli); experiment: Post-emergence herbicidal action against ECHCG; conditions: visual assessment after about 3 weeks
Experimental: as §1

[8] = test system: ABUTH (Abutylon threophrasti); experiment: Pre-emergence herbicidal effect against ABUTH; conditions: scored visually after 3 weeks
Excerpt: as §2

[9] = test system: VIOTR (Viola tricolor); experiment: Pre-emergence herbicidal effect against VIOTR; conditions: scored visually after 3 weeks
Excerpt: as §2

[10] = test system: AMARE (Amaranthus retroflexus); experiment: Pre-emergence herbicidal effect against AMARE; conditions: scored visually after 3 weeks
Excerpt: as §2

[11] = test system: ECHCG (Echinochloa crus-galli); experiment: Pre-emergence herbicidal effect against ECHCG; conditions: scored visually after 3 weeks
Excerpt: as §2

[12] = test system: AVEFA (Avena fatua); experiment: Pre-emergence herbicidal effect against AVEFA; conditions: 80 g/ha, scored visually after 3 weeks
Excerpt: as §2

[13] = test system: PHBPU (Pharbitis purpurea); experiment: Pre-emergence herbicidal effect against PHBPU; conditions: 80 g/ha, scored visually after 3 weeks
Excerpt: as §2

[14] = test system: SETVI (Setaria viridis); experiment: Post-emergence herbicidal action against SETVI; conditions: visual assessment after about 3 weeks
Experimental: as §1

[15] = test system: MATIN (Matricaria inodora); experiment: Post-emergence herbicidal action against MATIN; conditions: visual assessment after about 3 weeks
Experimental: as §1

[16] = test system: AMARE (Amaranthus retroflexus); experiment: Post-emergence herbicidal action against AMARE; conditions: visual assessment after about 3 weeks
Experimental: as §1

[17] = test system: KCHSC (Kochia scoparia); experiment: Pre-emergence herbicidal effect against KCHSC; conditions: scored visually after 3 weeks
Excerpt: as §2

[18] = test system: VIOTR (Viola tricolor); experiment: Post-emergence herbicidal action against VIOTR; conditions: visual assessment after about 3 weeks
Experimental: as §1

[19] = test system: SETVI (Setaria viridis); experiment: Pre-emergence herbicidal effect against SETVI; conditions: scored visually after 3 weeks
Excerpt: as §2

[20] = test system: DIGSA (Digitaria sanguinalis); experiment: Post-emergence herbicidal action against DIGSA; conditions: visual assessment after about 3 weeks
Experimental: as §1

[21] = test system: VERPE (Veronica persica); experiment: Pre-emergence herbicidal effect against VERPE; conditions: scored visually after 3 weeks
Excerpt: as §2

[22] = test system: MATIN (Matricaria inodora); experiment: Pre-emergence herbicidal effect against MATIN; conditions: scored visually after 3 weeks
Excerpt: as §2

[23] = test system: ABUTH (Abutylon threophrasti); experiment: Post-emergence herbicidal action against ABUTH; conditions: visual assessment after about 3 weeks
Experimental: as §1

CS(=O)(=O)c1c(OC(F)F)ccc(C(=O)Nc2nnco2)c1Cl [Example 1-25, 2-chloro-4-(difluoromethoxy)-3-(methylsulfonyl)-N-(1,3,4-oxadiazol-2-yl)benzamide]
Post-emergence effect at 20 g/ha against VERPE in % ([1]; 20 g/ha): 90% | Post-emergence effect at 80 g/ha against VERPE in % ([1]; 80 g/ha): 100% | Pre-emergence effect at 80 g/ha against LOLRI in % [2]: 90% | Pre-emergence effect at 20 g/ha against DIGSA in % ([3]; 20 g/ha): 100% | Pre-emergence effect at 80 g/ha against DIGSA in % ([3]; 80 g/ha): 100% | Post-emergence effect at 20 g/ha against KCHSC in % ([4]; 20 g/ha): 100% | Post-emergence effect at 80 g/ha against KCHSC in % ([4]; 80 g/ha): 100% | Post-emergence effect at 20 g/ha against PHBPU in % ([5]; 20 g/ha): 100% | Post-emergence effect at 80 g/ha against PHBPU in % ([5]; 80 g/ha): 100% | Post-emergence effect at 80 g/ha against AVEFA in % [6]: 100% | Post-emergence effect at 20 g/ha against ECHCG in % ([7]; 20 g/ha): 80% | Post-emergence effect at 80 g/ha against ECHCG in % ([7]; 80 g/ha): 100% | Pre-emergence effect at 20 g/ha against ABUTH in % ([8]; 20 g/ha): 100% | Pre-emergence effect at 80 g/ha against ABUTH in % ([8]; 80 g/ha): 100% | Pre-emergence effect at 20 g/ha against VIOTR in % ([9]; 20 g/ha): 100% | Pre-emergence effect at 80 g/ha against VIOTR in % ([9]; 80 g/ha): 100% | Pre-emergence effect at 20 g/ha against AMARE in % ([10]; 20 g/ha): 100% | Pre-emergence effect at 80 g/ha against AMARE in % ([10]; 80 g/ha): 100% | Pre-emergence effect at 20 g/ha against ECHCG in % ([11]; 20 g/ha): 100% | Pre-emergence effect at 80 g/ha against ECHCG in % ([11]; 80 g/ha): 100% | Pre-emergence effect at 80 g/ha against A VEFA in % [12]: 90% | Pre-emergence effect at 80 g/ha against PHBPU in % [13]: 90% | Post-emergence effect at 20 g/ha against SETVI in % ([14]; 20 g/ha): 100% | Post-emergence effect at 80 g/ha against SETVI in % ([14]; 80 g/ha): 100% | Post-emergence effect at 20 g/ha against MATIN in % ([15]; 20 g/ha): 100% | Post-emergence effect at 80 g/ha against MATIN in % ([15]; 80 g/ha): 100% | Post-emergence effect at 20 g/ha against AMARE in % ([16]; 20 g/ha): 100% | Post-emergence effect at 80 g/ha against AMARE in % ([16]; 80 g/ha): 100% | Pre-emergence effect at 20 g/ha against KCHSC in % ([17]; 20 g/ha): 100% | Pre-emergence effect at 80 g/ha against KCHSC in % ([17]; 80 g/ha): 100% | Post-emergence effect at 20 g/ha against VIOTR in % ([18]; 20 g/ha): 100% | Post-emergence effect at 80 g/ha against VIOTR in % ([18]; 80 g/ha): 100% | Pre-emergence effect at 20 g/ha against SETVI in % ([19]; 20 g/ha): 100% | Pre-emergence effect at 80 g/ha against SETVI in % ([19]; 80 g/ha): 100% | Post-emergence effect at 20 g/ha against DIGSA in % ([20]; 20 g/ha): 100% | Post-emergence effect at 80 g/ha against DIGSA in % ([20]; 80 g/ha): 100% | Pre-emergence effect at 20 g/ha against VERPE in % ([21]; 20 g/ha): 90% | Pre-emergence effect at 80 g/ha against VERPE in % ([21]; 80 g/ha): 100% | Pre-emergence effect at 20 g/ha against MATIN in % ([22]; 20 g/ha): 100% | Pre-emergence effect at 80 g/ha against MATIN in % ([22]; 80 g/ha): 100% | Post-emergence effect at 20 g/ha against ABUTH in % ([23]; 20 g/ha): 100% | Post-emergence effect at 80 g/ha against ABUTH in % ([23]; 80 g/ha): 100%
